The subject of the assay is PC3 cells. In words: NAMPT Cell Proliferation Assay. The following applies: Homo sapiens, PC-3, 120 h, 5 days incubation, cell viability by Cell Titer Glo. In kind it is cell-based. An outline of the steps: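 Seeded at 500 cells/well in RPMI with 10% heat-inactivated FBS and left to attach overnight at 37° C, 5% CO2. Compounds were added as 10-fold dilutions […] for 5 days, then viability was read by CellTiter-Glo. IC50s came from sigmoidal fits of percent inhibition.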

Structures are written as SMILES. A value given as a limit tells only on which side of the number the result lay.

Consider `Cc1cccc(C(=O)N2CCC(c3ccc(NC(=O)[C@H]4CCN(c5cccnn5)C4)cc3)CC2)c1C` [Example 728, (3S)-N-{4-[1-(2,3-dimethylbenzoyl)piperidin-4-yl]phenyl}-1-(pyridazin-3-yl)pyrrolidine-3-carboxamide], for which inhibition was half-maximal at 6.97 nM (IC50).
In the case of `CC(C)c1ccc(C(=O)N2CCC(c3ccc(NC(=O)[C@H]4CCN(c5cccnn5)C4)cc3)CC2)cc1` [Example 729, (3S)-N-(4-{1-[4-(propan-2-yl)benzoyl]piperidin-4-yl}phenyl)-1-(pyridazin-3-yl)pyrrolidine-3-carboxamide], the IC50 came out at 13.5 nM.
As for `O=C(Nc1ccc(C2CCN(C(=O)C3CCCCC3)CC2)cc1)[C@H]1CCN(c2cccnn2)C1` [Example 730, (3S)-N-{4-[1-(cyclohexylcarbonyl)piperidin-4-yl]phenyl}-1-(pyridazin-3-yl)pyrrolidine-3-carboxamide], the figure is 6.81 nM; as for `O=C(Nc1ccc(C2CCN(C(=O)c3cccs3)CC2)cc1)[C@H]1CCN(c2cccnn2)C1` [Example 731, (3S)-1-(pyridazin-3-yl)-N-{4-[1-(thiophen-2-ylcarbonyl)piperidin-4-yl]phenyl}pyrrolidine-3-carboxamide], 0.5 nM.
As for `O=C(Nc1ccc(C2CCN(C(=O)c3ccc(O)cc3)CC2)cc1)[C@H]1CCN(c2cccnn2)C1` [Example 732, (3S)-N-{4-[1-(4-hydroxybenzoyl)piperidin-4-yl]phenyl}-1-(pyridazin-3-yl)pyrrolidine-3-carboxamide], the IC50 was determined as 29.9 nM.
The same measure for `N#Cc1cccc(C(=O)N2CCC(c3ccc(NC(=O)[C@H]4CCN(c5cccnn5)C4)cc3)CC2)c1` [Example 733, (3S)-N-{4-[1-(3-cyanobenzoyl)piperidin-4-yl]phenyl}-1-(pyridazin-3-yl)pyrrolidine-3-carboxamide]: 37.5 nM; for `O=C(Nc1ccc(C2CCN(C(=O)CC(F)(F)F)CC2)cc1)[C@H]1CCN(c2cccnn2)C1` [Example 734, (3S)-1-(pyridazin-3-yl)-N-{4-[1-(3,3,3-trifluoropropanoyl)piperidin-4-yl]phenyl}pyrrolidine-3-carboxamide]: 8.33 nM; for `COCC(=O)N1CCC(c2ccc(NC(=O)[C@H]3CCN(c4cccnn4)C3)cc2)CC1` [Example 735, (3S)-N-{4-[1-(methoxyacetyl)piperidin-4-yl]phenyl}-1-(pyridazin-3-yl)pyrrolidine-3-carboxamide]: 68.9 nM.
In turn, `CC(C)CC(=O)N1CCC(c2ccc(NC(=O)[C@H]3CCN(c4cccnn4)C3)cc2)CC1` [Example 736, (3S)-N-{4-[1-(3-methylbutanoyl)piperidin-4-yl]phenyl}-1-(pyridazin-3-yl)pyrrolidine-3-carboxamide] registered a 50% inhibitory concentration (IC50) of 8.09 nM.
The molecule `N#Cc1ncccc1N1CC(C(=O)Nc2ccc(C3CCN(C(=O)c4ccccc4)CC3)cc2)C1` [Example 737, N-[4-(1-benzoylpiperidin-4-yl)phenyl]-1-(2-cyanopyridin-3-yl)azetidine-3-carboxamide] came in with an IC50 of 1860 nM.
As for `N#Cc1ccncc1N1CC(C(=O)Nc2ccc(C3CCN(C(=O)c4ccccc4)CC3)cc2)C1` [Example 738, N-[4-(1-benzoylpiperidin-4-yl)phenyl]-1-(4-cyanopyridin-3-yl)azetidine-3-carboxamide], the figure is 854 nM; as for `Cc1cc(F)ncc1N1CC(C(=O)Nc2ccc(C3CCN(C(=O)c4ccccc4)CC3)cc2)C1` [Example 739, N-[4-(1-benzoylpiperidin-4-yl)phenyl]-1-(6-fluoro-4-methylpyridin-3-yl)azetidine-3-carboxamide], 7310 nM.
On to `N#Cc1cncc(N2CC(C(=O)Nc3ccc(C4CCN(C(=O)c5ccccc5)CC4)cc3)C2)c1` [Example 740, N-[4-(1-benzoylpiperidin-4-yl)phenyl]-1-(5-cyanopyridin-3-yl)azetidine-3-carboxamide], for which the half-inhibitory concentration (IC50) was 914 nM. Compared with the last molecule, the IC50 is about 8-fold lower.
`Cc1cncc(N2CC(C(=O)Nc3ccc(C4CCN(C(=O)c5ccccc5)CC4)cc3)C2)c1` [Example 741, N-[4-(1-benzoylpiperidin-4-yl)phenyl]-1-(5-methylpyridin-3-yl)azetidine-3-carboxamide]: it took 181 nM to reach half-maximal inhibition (IC50).
In turn, `CC(C)Cn1cc(-c2ncc(C(=O)N[C@H]3CCN(c4cccnn4)C3)s2)cn1` [Example 742, 2-[1-(2-methylpropyl)-1H-pyrazol-4-yl]-N-[(3S)-1-(pyridazin-3-yl)pyrrolidin-3-yl]-1,3-thiazole-5-carboxamide] gave an IC50 of 734 nM.
As for `Cc1ncccc1N1CC[C@H](C(=O)Nc2ccc(C3CCN(C(=O)c4ccccc4)CC3)cc2)C1` [Example 743, (3S)—N-[4-(1-benzoylpiperidin-4-yl)phenyl]-1-(2-methylpyridin-3-yl)pyrrolidine-3-carboxamide], the figure is 6620 nM; as for `Cc1ncccc1N1CC[C@H](C(=O)Nc2ccc(C3CCN(C(=O)c4ccccc4F)CC3)cc2)C1` [Example 744, (3S)—N-{4-[1-(2-fluorobenzoyl)piperidin-4-yl]phenyl}-1-(2-methylpyridin-3-yl)pyrrolidine-3-carboxamide], 2720 nM.
As for `Cc1ncccc1N1CC[C@H](C(=O)Nc2ccc(C3CCN(C(=O)CCC(F)(F)F)CC3)cc2)C1` [Example 745, (3S)-1-(2-methylpyridin-3-yl)-N-{4-[1-(4,4,4-trifluorobutanoyl)piperidin-4-yl]phenyl}pyrrolidine-3-carboxamide], the concentration for half-maximal inhibition (IC50) is greater than 10000 nM.
Turning to `CC(C)Cn1cc(-c2ccc(C(=O)N[C@H]3CCN(c4ccc(Cl)nn4)C3)o2)cn1` [Example 746, N-[(3S)-1-(6-chloropyridazin-3-yl)pyrrolidin-3-yl]-5-[1-(2-methylpropyl)-1H-pyrazol-4-yl]furan-2-carboxamide], the IC50 is greater than 10000 nM.
For the molecule `CC(C)Cn1cc(-c2ccc(C(=O)N[C@H]3CCN(c4cccnn4)C3)o2)cn1` [Example 747, 5-[1-(2-methylpropyl)-1H-pyrazol-4-yl]-N-[(3S)-1-(pyridazin-3-yl)pyrrolidin-3-yl]furan-2-carboxamide], the IC50 was 5920 nM. This counts as single-digit micromolar.
`CC1(Cn2cc(-c3ccc(NC(=O)C4CN(c5cccnn5)C4)cc3)cn2)CCOCC1` [Example 748, N-(4-{1-[(4-methyltetrahydro-2H-pyran-4-yl)methyl]-1H-pyrazol-4-yl}phenyl)-1-(pyridazin-3-yl)azetidine-3-carboxamide] showed an IC50 of 2.58 nM.
As for `CC(C)C(=O)N1CCC(c2ccc(C(=O)N[C@H]3CCN(c4ccc(Cl)nn4)C3)cc2)CC1` [Example 749, N-[(3S)-1-(6-chloropyridazin-3-yl)pyrrolidin-3-yl]-4-[1-(2-methylpropanoyl)piperidin-4-yl]benzamide], the figure is greater than 10000 nM; as for `O=C(Nc1ccc(-c2cnn(CCN3CCNCC3)c2)cc1)C1CN(c2cccnn2)C1` [Example 750, N-(4-{1-[2-(piperazin-1-yl)ethyl]-1H-pyrazol-4-yl}phenyl)-1-(pyridazin-3-yl)azetidine-3-carboxamide], 226 nM.
The same measure for `CC(C)(C)Cn1cc(-c2ccc(NC(=O)C3CN(c4cccnn4)C3)cc2)cn1` [Example 751, N-{4-[1-(2,2-dimethylpropyl)-1H-pyrazol-4-yl]phenyl}-1-(pyridazin-3-yl)azetidine-3-carboxamide]: 2.71 nM.
In the case of `CC(C)C(=O)N1CCC(c2ccc(C(=O)N[C@H]3CCN(c4cccnn4)C3)cc2)CC1` [Example 752, 4-[1-(2-methylpropanoyl)piperidin-4-yl]-N-[(3S)-1-(pyridazin-3-yl)pyrrolidin-3-yl]benzamide], 2450 nM corresponded to half-maximal inhibition (IC50).
The same measure for `CC(C)(O)Cn1cc(-c2ccc(NC(=O)C3CN(c4cccnn4)C3)cc2)cn1` [Example 753, N-{4-[1-(2-hydroxy-2-methylpropyl)-1H-pyrazol-4-yl]phenyl}-1-(pyridazin-3-yl)azetidine-3-carboxamide]: 8.92 nM.
The same measure for `O=C(N[C@H]1CCN(c2cccnn2)C1)c1ccc(C2CCN(C(=O)c3cccc(F)c3)CC2)s1` [Example 754, 5-[1-(3-fluorobenzoyl)piperidin-4-yl]-N-[(3S)-1-(pyridazin-3-yl)pyrrolidin-3-yl]thiophene-2-carboxamide]: 94.8 nM.
Consider `O=C(N[C@H]1CCN(c2cccnn2)C1)c1ccc(C2CCN(C(=O)c3ccc(F)cc3)CC2)s1` [Example 755, 5-[1-(4-fluorobenzoyl)piperidin-4-yl]-N-[(3S)-1-(pyridazin-3-yl)pyrrolidin-3-yl]thiophene-2-carboxamide], for which the IC50 was 190 nM.
As for `CC1(Cn2cc(-c3ccc(NC(=O)[C@H]4CCN(c5cccnn5)C4)cc3)cn2)CCOCC1` [Example 756, (3S)—N-(4-{1-[(4-methyltetrahydro-2H-pyran-4-yl)methyl]-1H-pyrazol-4-yl}phenyl)-1-(pyridazin-3-yl)pyrrolidine-3-carboxamide], the figure is 9.08 nM; as for `CC(C)(O)Cn1cc(-c2ccc(NC(=O)[C@H]3CCN(c4cccnn4)C3)cc2)cn1` [Example 757, (3S)-N-{4-[1-(2-hydroxy-2-methylpropyl)-1H-pyrazol-4-yl]phenyl}-1-(pyridazin-3-yl)pyrrolidine-3-carboxamide], 67.7 nM; as for `O=C(N[C@H]1CCN(c2cccnn2)C1)c1ccc(C2CCN(C(=O)C3CCOCC3)CC2)s1` [Example 758, N-[(3S)-1-(pyridazin-3-yl)pyrrolidin-3-yl]-5-[1-(tetrahydro-2H-pyran-4-ylcarbonyl)piperidin-4-yl]thiophene-2-carboxamide], 857 nM.
The same measure for `CC(C)(C)Cn1cc(-c2ccc(NC(=O)[C@H]3CCN(c4cccnn4)C3)cc2)cn1` [Example 759, (3S)-N-{4-[1-(2,2-dimethylpropyl)-1H-pyrazol-4-yl]phenyl}-1-(pyridazin-3-yl)pyrrolidine-3-carboxamide]: 6.2 nM.
On to `CC(C)C(=O)N1CCC(c2ccc(C(=O)N[C@H]3CCN(c4cccnn4)C3)s2)CC1` [Example 760, 5-[1-(2-methylpropanoyl)piperidin-4-yl]-N-[(3S)-1-(pyridazin-3-yl)pyrrolidin-3-yl]thiophene-2-carboxamide], for which the IC50 was determined as 253 nM.

Usually IC50 stands for the point on the concentration scale where inhibition reaches its midpoint. A low value points to inhibition by little substance.

For the origin of these results see patent publication US20130303509A1, “NAMPT INHIBITORS” (AbbVie Inc., priority 2012, published 2013).
